Some test systems named below: NCI-H226 lung; SF-295 CNS; SN12C renal; SNB-19 CNS; SF-268 CNS; MDA-MB-435; RPMI-8226 leukemia; SK-MEL-2 melanoma; 786-0 renal; CCRF-CEM leukemia.
Common to all, as to assay: NCI tumour cell line growth inhibition, 48 h

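Briefly, cells in 96-well plates were exposed to five compound concentrations for 48 h, and endpoints were estimated by linear interpolation. Here, GI50 denotes the concentration required for 50% inhibition of growth. The concentration for full growth arrest is given as TGI.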 Some results are limits rather than exact numbers.

Regarding `CC(=O)/C=C/C1=C(c2csc3ccccc23)c2ccccc2CC1`, the GI50 in the experiment on NCI-H226 lung was 19.8 µM; in the experiment with SF-295 CNS, 21000 nM; in the experiment on SN12C renal it was 32.6 µM; with SNB-19 CNS, 32.5 µM; in the experiment on SF-268 CNS it was 31.8 µM; with MDA-MB-435, 21600 nM. Besides, the GI50 in the experiment with RPMI-8226 leukemia was 8.69 µM; in the experiment on SK-MEL-2 melanoma, 15.2 µM; with 786-0 renal, 35.7 µM; with CCRF-CEM leukemia, 23.2 µM. Moreover, the TGI in the experiment with NCI-H226 lung was 44.1 µM; in the experiment with SF-295 CNS, 65.2 µM; in the experiment on SN12C renal it was more than 100 µM; in the experiment on SNB-19 CNS, more than 100 µM; with SF-268 CNS, more than 100 µM; in the experiment with MDA-MB-435 it was 70.7 µM. The TGI is 47.3 µM in the experiment on RPMI-8226 leukemia, 40.9 µM with SK-MEL-2 melanoma, more than 100 µM in the experiment with 786-0 renal and 79.4 µM with CCRF-CEM leukemia.
Take `COc1ccc(/C=C2\SC(=Nc3ccccc3)NC2=O)cc1`: the GI50 is 13.8 µM in the experiment with NCI-H226 lung; 4600 nM with SF-295 CNS; 9.1 µM with SN12C renal; 6.34 µM in the experiment on SNB-19 CNS; 8.18 µM in the experiment with SF-268 CNS; 2140 nM with MDA-MB-435. In addition, the GI50 is 5.38 µM with RPMI-8226 leukemia, 29.3 µM with SK-MEL-2 melanoma, 8.25 µM in the experiment on 786-0 renal and 5.4 µM with CCRF-CEM leukemia. Further, the TGI in the experiment on NCI-H226 lung was more than 100 µM; in the experiment with SF-295 CNS it was more than 100 µM; in the experiment with SN12C renal, more than 100 µM; in the experiment on SNB-19 CNS it was 83.7 µM; in the experiment on SF-268 CNS, 88.3 µM; in the experiment on MDA-MB-435, 5.34 µM. Besides, the TGI in the experiment with RPMI-8226 leukemia was more than 100 µM; in the experiment on SK-MEL-2 melanoma, 82.4 µM; with 786-0 renal, 30.1 µM; in the experiment on CCRF-CEM leukemia it was more than 100 µM.
As to `CC(C)=CC(=O)N[C@H]1CC[C@]2(C)C3CC[C@]4(C)C(C(C)N(C)C)=CCC4C3CCC2[C@H]1O` (stereo not given in full), the GI50 was 8.49 µM in the experiment on NCI-H226 lung; 2640 nM in the experiment on SF-295 CNS; 5.27 µM in the experiment with SN12C renal; 14.8 µM in the experiment with SNB-19 CNS; 2.35 µM with SF-268 CNS; 2000 nM with MDA-MB-435. The GI50 with RPMI-8226 leukemia is 2.41 µM; in the experiment on SK-MEL-2 melanoma, 12.4 µM; in the experiment on 786-0 renal it was 2.85 µM; in the experiment on CCRF-CEM leukemia, 2.92 µM. Also, the TGI came out at 25.7 µM in the experiment with NCI-H226 lung; 9.07 µM in the experiment with SF-295 CNS; 19.1 µM with SN12C renal; 28.1 µM in the experiment on SNB-19 CNS; 6.63 µM in the experiment with SF-268 CNS; 4.53 µM in the experiment with MDA-MB-435. Besides, the TGI stood at 9.3 µM in the experiment with RPMI-8226 leukemia, 28.7 µM in the experiment on SK-MEL-2 melanoma, 9.23 µM in the experiment with 786-0 renal and 14.3 µM in the experiment with CCRF-CEM leukemia.
For the compound `Cc1c(Cl)cccc1NC(=O)/C=C/c1ccccc1`, the TGI in the experiment on NCI-H226 lung, with SF-295 CNS, in the experiment on SN12C renal, in the experiment on SNB-19 CNS, in the experiment with SF-268 CNS and with MDA-MB-435 was more than 100 µM throughout. The TGI with RPMI-8226 leukemia, in the experiment with SK-MEL-2 melanoma, in the experiment on 786-0 renal and with CCRF-CEM leukemia was more than 100 µM in each case.
For `COc1ccc(NC(=O)c2sc3nc(C)c(C(=O)/C=C/c4cccc(OC)c4)cc3c2N)cc1`, the GI50 with NCI-H226 lung was 1.89 µM; with SF-295 CNS it was 3280 nM; in the experiment on SN12C renal, 1.43 µM; with SNB-19 CNS it was 1.72 µM; with SF-268 CNS, 2.07 µM; with MDA-MB-435 it was 1350 nM. The GI50 in the experiment with RPMI-8226 leukemia was 0.989 µM; in the experiment with SK-MEL-2 melanoma, 1.54 µM; in the experiment with 786-0 renal, 0.856 µM; in the experiment on CCRF-CEM leukemia, 1.21 µM. Also, the TGI in the experiment with NCI-H226 lung is 10.3 µM; with SF-295 CNS, more than 50 µM; in the experiment with SN12C renal, 4.47 µM; in the experiment with SNB-19 CNS, 6.73 µM; with SF-268 CNS, 14.1 µM; in the experiment on MDA-MB-435, 6.78 µM. Also, the TGI is 3.08 µM in the experiment on RPMI-8226 leukemia, 18 µM in the experiment with SK-MEL-2 melanoma, 1.85 µM in the experiment on 786-0 renal and more than 50 µM in the experiment on CCRF-CEM leukemia.
Regarding `Cn1c(-c2ccccc2)c(/C=C/C2=[N+](C)c3ccccc3C2(C)C)c2ccccc21`, the GI50 was 2.35 µM in the experiment with NCI-H226 lung; 775 nM in the experiment on SF-295 CNS; 1.7 µM in the experiment with SN12C renal; 0.571 µM in the experiment with SNB-19 CNS; 1.32 µM with SF-268 CNS; 486 nM in the experiment on MDA-MB-435. Besides, the GI50 with RPMI-8226 leukemia is 0.167 µM; with SK-MEL-2 melanoma, 1.13 µM; in the experiment with 786-0 renal it was 2.18 µM; in the experiment with CCRF-CEM leukemia it was 1.18 µM. The TGI turned out to be 12.2 µM in the experiment on NCI-H226 lung; 3.73 µM in the experiment on SF-295 CNS; 12.8 µM in the experiment with SN12C renal; 15.5 µM in the experiment with SNB-19 CNS; 12.9 µM with SF-268 CNS; 4.02 µM in the experiment on MDA-MB-435. The TGI in the experiment on RPMI-8226 leukemia was 0.911 µM; in the experiment on SK-MEL-2 melanoma it was 4.19 µM; with 786-0 renal, 9.02 µM; in the experiment on CCRF-CEM leukemia it was 54.7 µM.
On to `C=C1SC(=Nc2ccccc2Cl)N(C(=O)c2sc3ccccc3c2Cl)C12CCCCC2`, for which the GI50 with NCI-H226 lung is 40 µM; in the experiment on SF-295 CNS, 2310 nM; with SN12C renal it was 6.99 µM; in the experiment with SNB-19 CNS, 7.56 µM; in the experiment with SF-268 CNS, 11.7 µM; in the experiment with MDA-MB-435 it was 29800 nM. Also, the GI50 in the experiment on RPMI-8226 leukemia was 3.81 µM; with SK-MEL-2 melanoma, 15.8 µM; in the experiment with 786-0 renal, 37.9 µM; in the experiment on CCRF-CEM leukemia, 5.41 µM. Moreover, the TGI in the experiment on NCI-H226 lung was more than 100 µM; with SF-295 CNS it was 23 µM; in the experiment with SN12C renal, more than 100 µM; in the experiment on SNB-19 CNS, more than 100 µM; with SF-268 CNS, more than 100 µM; with MDA-MB-435, more than 100 µM. The TGI was 98.2 µM in the experiment with RPMI-8226 leukemia, 58.8 µM with SK-MEL-2 melanoma, more than 100 µM in the experiment on 786-0 renal and more than 100 µM in the experiment on CCRF-CEM leukemia.
For the compound `Cc1[nH]c(N)nc(=S)c1CCC(=O)O`, the TGI in the experiment on NCI-H226 lung, in the experiment on SF-295 CNS, with SN12C renal, in the experiment with SNB-19 CNS, in the experiment on SF-268 CNS and with MDA-MB-435 was more than 100 µM in each case. In addition, the TGI in the experiment with RPMI-8226 leukemia, in the experiment with SK-MEL-2 melanoma, in the experiment on 786-0 renal and in the experiment with CCRF-CEM leukemia was more than 100 µM each time.

Source of the values: PubChem BioAssay (NCI).
